The values below are quoted from earlier work in patent US7517900B2, “Pyrazole derivatives as cannabinoid receptor modulators” (Bristol-Myers Squibb Company, priority 2003, dated 2009).

For data set [1] the following is noted: chronic administration for two weeks.
Another data set deals with human subjects. The note with it: 16 week trial period, Phase IIb.

Turning to `Cc1c(C(=O)NN2CCCCC2)nn(-c2ccc(Cl)cc2Cl)c1-c1ccc(I)cc1` [AM-251], the body weight result in data set [1] is on record as “substantial body weight reduction”. As for `Cc1c(C(=O)NN2CCCCC2)nn(-c2ccc(Cl)cc2Cl)c1-c1ccc(Cl)cc1` [SR-141716], the “body weight in human subjects” value in the data set with human subjects is given as “dose-dependently reduced body weight”.
